According to US20190330220A1, “METHODS OF MAKING SUBSTITUTED PORPHYRIN PHARMACEUTICAL COMPOUNDS AND COMPOSITIONS” (Duke University, priority 2016, published 2019):
Where two headings read alike, the source gives them in different places.

Tests used:
[1] = tested on: cells; settings: compared with ethyl analogue, background statement; cited from earlier work
[2] = background statement; cited from earlier work
[3] = SOD-like activity; format: biochemical
Method: (§1) Electrochemistry, electrospray-ionization mass spectrometry (ESI-MS), UV-visible spectroscopy and SOD-like activity were carried out as previously described.^29, 32. All quantum chemistry calculations have been performed at the M06-2X/6-311++G(2d,p)//M06-2X/6-31+G(d) DFT level^33-38 using the Gaussian 09 software.^39 All frequency calculations were carried out at […] and used to characterize minima and transition states. The solvent effect has been taken into account using the CPCM continuum solvation model^40 for N,N-dimethylformamide (DMF). The free energies of reactants, transition states, and products have been obtained from the ideal gas partition functions for the structures optimized in solution^40 and corrected to include the compression work of the gas^41 (or liberation free energy^42) to standard 1 mol L^−1 concentration. The coulombic stabilization energy due to the formation of ionic pairs in DMF has also been included in the final results by approximating each ion as a sphere, whose volume was considered the same as that of the solute cavity;^43 the distance between cation and anion in the ionic pair was taken as the sum of the two sphere radii.

[4] = electrochemistry, Mn(III)/Mn(II) reduction potential; format: physicochemical
Method: as §1

[5] = rat Comet assay (genotoxicity); settings: pre-clinical studies
[6] = lipophilicity of Mn porphyrin complex
[7] = toxicity compared with analogous alkyl-chain Mn porphyrins

For `CCCCCC[n+]1ccccc1-c1c2nc(c(-c3cccc[n+]3CCCCCC)c3ccc([n-]3)c(-c3cccc[n+]3CCCCCC)c3nc(c(-c4cccc[n+]4CCCCCC)c4ccc1[n-]4)C=C3)C=C2.[Mn+3]` [MnTnHex-2-PyP^5+, Mn(III) meso-tetrakis-(N-n-hexylpyridinium-2-yl)porphyrin], the accumulation in cells [1] is listed as “higher levels than its ethyl analogue”.
In the case of `CC[n+]1ccccc1-c1c2nc(c(-c3cccc[n+]3CC)c3ccc([n-]3)c(-c3cccc[n+]3CC)c3nc(c(-c4cccc[n+]4CC)c4ccc1[n-]4)C=C3)C=C2.[Mn+3]` [MnTE-2-PyP^5+, Mn(III) meso-tetrakis-(N-ethylpyridinium-2-yl)porphyrins], the lipophilicity [2] is given as “low lipophilicity”.
In the case of `CCCCOCC[n+]1ccccc1C1=C2C=CC3=[N+]2[Mn]24[n]5c1ccc5C(c1cccc[n+]1CCOCCCC)=C1C=CC(=[N+]12)C(c1cccc[n+]1CCOCCCC)=c1ccc([n]14)=C3c1cccc[n+]1CCOCCCC` [MnTnBuOE-2-PyP^5+, Mn(III) meso-tetrakis-(N-n-butoxyethylpyridinium-2-yl)porphyrin], the SOD-like activity [3] is reported as “high”, the “Mn(III)/Mn(II) reduction potential (E1/2)” value [4] is reported as “high” and the “genotoxicity in a rat Comet assay” value [5] is reported as “lack of genotoxicity”. For the same compound, the lipophilicity [6] was “lipophilic”, the toxicity [7] was “low toxicity” and the “fold less toxic than analogous ortho alkyl MnP^5+” value ([7]; relative to analogous alkyl chains) was 4-5 fold.
